Consider one compound from patent US20140121181A1, “HYDROPHOBIC POLYMER COMPOUND HAVING ANTICOAGULANT EFFECT” (TORY INDUSTRIES, INC., priority 2011, published 2014).

The test system of the assay is citric acid-supplemented blood collected from a volunteer. The assay can be described thus: Measurement of whole blood coagulation time (Sonoclot, ACT ONSET value). More on the design: species or system human. The protocol: In a cuvette (Non-activated Clotting Test Kit), 18 μL of physiological saline was placed and 14.8 μL of calcicol was added thereto, followed by further addition of 342 μL of the thus obtained citric acid-supplemented blood. The resulting mixture was measured using a Sonoclot blood coagulation/platelet function analyzer (IMI Co., Ltd.) and the measured ACT ONSET value was defined as the whole blood coagulation time.

`CC1CNc2c(cccc2S(=O)(=O)N[C@@H](CCCNC(=N)N)C(=O)N2CC[C@@H](C)C[C@@H]2C(=O)O)C1` (mixture of isomers) [argatroban, (2R,4R)-4-methyl-1-((2S)-2-{[(3RS)-3-methyl-1,2,3,4-tetrahydroquinolin-8-yl]sulfonyl}amino-5-guanidinopentanoyl)piperidine-2-carboxylic acid]: the “whole blood coagulation time” value was determined as 520 s (2 μM test solution/dispersion in place of physiological saline), 734 s (10 μM test solution in place of physiological saline) and 893 s (20 μM test solution in place of physiological saline).
